Test results: patent US20200392116A1, “SUBSTITUTED HETEROCYCLES AS c-MYC TARGETING AGENTS” (NORTHWESTERN UNIVERSITY, priority 2019, published 2020)

Assay: Potency code of Table 2 (assay not stated)

SMILES	Potency code
Cn1cc(-c2ccoc2)c(-c2ccc(OCc3ccc(Cl)cc3)cc2O)n1 [NUCC-0198324]	+ (>40 +)
C#CCC(N=[N+]=[N-])C(=O)NCCOc1ccc(-c2cc(C(F)(F)F)n[nH]2)c(O)c1-c1cncc(C(F)(F)F)c1 (stereo not shown) [NUCC-0201697]	+ (>40 +)
Cn1nc(C(F)(F)F)cc1-c1ccc(OCCCNC(=O)OC(C)(C)C)c(-c2ccc(Cl)c(C(F)(F)F)c2)c1O [NUCC-0201657]	+ (>40 +)
[N-]=[N+]=NCCOCCOCCOCC(=O)Nc1ccc(COc2ccc(-c3cc(C(F)(F)F)n[nH]3)c(O)c2-c2cc(C(F)(F)F)cc(C(F)(F)F)c2)cc1 [NUCC-0201199]	+++ (10-30 +++)
Cc1ccc(-c2c[nH]nc2-c2ccc(OCc3ccc(Cl)cc3)cc2O)cc1 [NUCC-0196345]	+ (>40 +)
Oc1c(-c2cc(C(F)(F)F)[nH]n2)ccc(OCc2ccc(Cl)cc2)c1Cc1ccccc1Cl [NUCC-0200490]	+ (>40 +)
Cn1nc(-c2ccc(OCc3ccc(Cl)cc3)cc2O)c(Oc2cccc(F)c2)c1C(F)(F)F [NUCC-0196302]	+ (>40 +)
Cn1cc(-c2ccc(OCc3ccc(Cl)cc3)cc2CO)c(C(F)(F)F)n1 [NUCC-0200813]	+ (>40 +)
CC(C)COc1ccc(-c2cc(C(F)(F)F)n[nH]2)c(O)c1-c1cc(C(C)(F)F)cc(C(F)(F)F)c1 [NUCC-0201030]	+ (>40 +)
CCc1ccc(Oc2c(-c3ccc(O)cc3O)nn(C)c2C(F)(F)F)cc1 [NUCC-0198411]	+++ (10-30 +++)
Oc1cc(OCc2ccc(Cl)cc2)ccc1-c1n[nH]cc1-c1cccnc1 [NUCC-0198320]	+ (>40 +)
COc1ccc(-c2c(-c3ccc(O)cc3O)n[nH]c2C(F)(F)F)cc1OC [NUCC-0200496]	+ (>40 +)
CCCCCCOc1ccc(-c2cc(C(F)(F)F)nn2C)c(O)c1-c1cncc(C(F)(F)F)c1 [NUCC-0201205]	++++ (<10 ++++)
Cn1nc(-c2ccc(Nc3ccc4c(c3)OCO4)cc2O)cc1C(F)(F)F [NUCC-0200562]	+ (>40 +)
C#CCCC(=O)NCCCOc1ccc(-c2cc(C(F)(F)F)n[nH]2)c(O)c1-c1ccc(Cl)c(C(F)(F)F)c1 [NUCC-0201659]	+ (>40 +)
Cn1nc(C(F)(F)F)cc1-c1ccc(OCc2ccc(Cl)cc2)c(Br)c1O [NUCC-0198407]	+++ (10-30 +++)
Oc1cc(Nc2ccc(Cl)cc2)ccc1-c1cc(C(F)(F)F)[nH]n1 [NUCC-0200491]	++++ (<10 ++++)
Cn1nc(C(F)(F)F)cc1-c1ccc(OCc2ccc(Cl)cc2)c(-c2ccc(C(F)(F)F)cc2Cl)c1O [NUCC-0200738]	+++ (10-30 +++)
CCCCOc1ccc(-c2cc(C(F)(F)F)n[nH]2)c(O)c1-c1ccc(Cl)c(C(F)(F)F)c1 [NUCC-0201225]	+ (>40 +)
Oc1cc(OCc2ccc(Cl)cc2)ccc1-c1n[nH]cc1-c1ccccc1 [NUCC-0198293]	+ (>40 +)
O=C(COCCOCCOCCn1cc(COc2cccc3c2C(=O)N(C2CCC(=O)NC2=O)C3=O)nn1)NCCOc1ccc(-c2cc(C(F)(F)F)n[nH]2)c(O)c1-c1cncc(C(F)(F)F)c1 (stereo not shown) [NUCC-0201704]	+ (>40 +)
Cn1nc(-c2ccc(OCc3ccc(Cl)cc3)c(-c3ccc(F)cc3)c2O)cc1C(F)(F)F [NUCC-0196348]	+++ (10-30 +++)
Cn1nc(C(F)(F)F)cc1-c1ccc(OCc2ccc(Cl)cc2)c(-c2ccc(C(F)(F)F)cc2)c1O [NUCC-0200726]	+ (>40 +)
Nc1nc(-c2ccc(OCc3ccc(Cl)cc3)cc2O)cc(C(F)(F)F)n1 [NUCC-0200502]	+ (>40 +)

SMILES	Potency code
NC(=O)c1ccc(-c2c(OCc3ccc(Cl)cc3)ccc(-c3cc(C(F)(F)F)[nH]n3)c2O)cc1 [NUCC-0198394]	++ (30-40 ++)
COc1cccc(-c2c[nH]nc2-c2ccc(OCc3ccc(Cl)cc3)cc2O)c1 [NUCC-0198308]	+ (>40 +)
CCCc1c(OCc2ccc(Cl)cc2)ccc(-c2cc(C(F)(F)F)n[nH]2)c1O [NUCC-0200740]	+ (>40 +)
COc1cccc(-c2c(-c3ccc(OCc4ccc(Cl)cc4)cc3O)nn(C)c2C(F)(F)F)c1 [NUCC-0198311]	+ (>40 +)
C#CCC(N=[N+]=[N-])C(=O)NCCCOc1ccc(-c2cc(C(F)(F)F)n(C)n2)c(O)c1-c1cncc(C(F)(F)F)c1 (stereo not shown) [NUCC-0201694]	+ (>40 +)
O=C(O)c1cc(-c2ccc(OCc3ccc(Cl)cc3)c(-c3cc(C(F)(F)F)cc(C(F)(F)F)c3)c2O)n[nH]1 [NUCC-0200973]	++++ (<10 ++++)
Cn1nc(C(F)(F)F)cc1-c1ccc(OCc2ccc(Cl)cc2)cc1N [NUCC-0200745]	+ (>40 +)
N#Cc1cccc(-c2c(OCc3ccc(Cl)cc3)ccc(-c3cc(C(F)(F)F)[nH]n3)c2O)c1 [NUCC-0198398]	++++ (<10 ++++)
Nc1ccc(COc2ccc(-c3cc(C(F)(F)F)n[nH]3)c(O)c2-c2cncc(C(F)(F)F)c2)cc1 [NUCC-0201661]	+ (>40 +)
Cc1ccccc1-c1c[nH]nc1-c1ccc(OCc2ccc(Cl)cc2)cc1O [NUCC-0198355]	+ (>40 +)
Cn1nc(C(F)(F)F)cc1-c1ccc(OCc2ccc(Cl)cc2)cc1O [NUCC-0198412]	+ (>40 +)
Cc1ccc(-c2c(OCc3ccc(Cl)cc3)ccc(-c3cc(C(F)(F)F)[nH]n3)c2O)cc1 [NUCC-0196344]	+++ (10-30 +++)
Oc1cc(Oc2ccc(Cl)cc2)ccc1-c1cc(C(F)(F)F)[nH]n1 [NUCC-0200679]	++ (30-40 ++)
CC(C)CCOc1ccc(-c2cc(C(F)(F)F)n(C)n2)c(O)c1-c1cncc(C(F)(F)F)c1 [NUCC-0201211]	+ (>40 +)
CCc1ccc(Oc2c(-c3ccc(OCc4ccc(Cl)c(Cl)c4)cc3O)n[nH]c2C(F)(F)F)cc1 [NUCC-0196355]	+++ (10-30 +++)
Oc1cc(OCc2ccc(Cl)cc2)ccc1-c1n[nH]c(C(F)(F)F)c1-c1ccccc1 [NUCC-0198295]	++++ (<10 ++++)
Cn1nc(-c2ccc(OCc3ccc(Cl)cc3)c(-c3ccc(C(F)(F)F)cc3)c2O)cc1C(F)(F)F [NUCC-0200727]	+ (>40 +)
CN/N=C(\C)c1cccc(-c2c(OCc3ccc(Cl)cc3)ccc(-c3cc(C(F)(F)F)n(C)n3)c2O)c1 [NUCC-0198405]	+ (>40 +)
Cc1cc(C)cc(-c2cnn(C)c2-c2ccc(OCc3ccc(Cl)cc3)cc2O)c1 [NUCC-0198354]	+ (>40 +)
Cn1nc(-c2ccc(N)cc2O)cc1C(F)(F)F [NUCC-0200498]	+ (>40 +)
Cc1[nH]nc(-c2ccc(OCCc3ccc(Cl)cc3)cc2O)c1Oc1ccccc1 [NUCC-0176252]	+ (>40 +)
Cn1nc(-c2ccc(O)c(-c3cc(C(F)(F)F)cc(C(F)(F)F)c3)c2O)cc1C(F)(F)F [NUCC-0200724]	+ (>40 +)
Oc1c(-c2cc(C(F)(F)F)[nH]n2)ccc(OCc2ccc(Cl)cc2)c1-c1ccc(F)cc1 [NUCC-0196347]	+ (>40 +)
Cn1nc(-c2ccc(OCc3ccc(Cl)cc3)c(-c3cc(C(F)(F)F)cc(C(F)(F)F)c3)c2O)cc1C(=O)O [NUCC-0200971]	++++ (<10 ++++)

SMILES	Potency code
COc1ccc(-c2c(-c3ccc(OCc4ccc(Cl)cc4)cc3O)nn(C)c2C)cc1 [NUCC-0198307]	+ (>40 +)
Cn1nc(-c2ccc(Nc3ccc(F)c(F)c3)cc2O)cc1C(F)(F)F [NUCC-0200560]	+ (>40 +)
Oc1cc(OCc2ccc(Cl)cc2)ccc1-c1n[nH]cc1-c1ccoc1 [NUCC-0198322]	++ (30-40 ++)
Cn1nc(-c2ccc(Nc3ccc(NC=O)cc3)cc2O)cc1C(F)(F)F [NUCC-0200564]	+ (>40 +)
Cn1nc(-c2ccc(OCc3ccc(Cl)cc3)c(-c3ccc(C#N)cc3)c2O)cc1C(F)(F)F [NUCC-0198393]	+ (>40 +)
Cn1nc(C(F)(F)F)cc1-c1ccc(NC(=O)c2ccc(Cl)cc2)cc1O [NUCC-0200817]	+ (>40 +)
N#Cc1ccc(COc2ccc(-c3cc(C(F)(F)F)[nH]n3)c(O)c2-c2ccc(Cl)c(C(F)(F)F)c2)cc1 [NUCC-0201911]	+ (>40 +)
Cn1nc(C(F)(F)F)cc1-c1ccc(OCc2ccc(Cl)cc2)c(-c2ccccc2OC(F)(F)F)c1O [NUCC-0198410]	+ (>40 +)
Cn1cc(-c2cnc(OCc3ccc(Cl)cc3)cn2)c(C(F)(F)F)n1 [NUCC-0200747]	+ (>40 +)
N#Cc1cccc(-c2c(C(F)(F)F)n[nH]c2-c2cc(OCc3ccc(Cl)cc3)ccc2O)c1 [NUCC-0200571]	+ (>40 +)
COc1ccc(COc2ccc(-c3cc(C(F)(F)F)n[nH]3)c(O)c2-c2cc(C(F)(F)F)cc(C(F)(F)F)c2)cc1 [NUCC-0201041]	+ (>40 +)
CN/N=C(/C)c1ccc(-c2c(OCc3ccc(Cl)cc3)ccc(-c3cc(C(F)(F)F)nn3C)c2O)cc1 [NUCC-0198396]	+ (>40 +)
CCc1ccc(Oc2c[nH]nc2-c2ccc(OCCc3ccc(Cl)cc3)cc2O)cc1 [NUCC-0176261]	+ (>40 +)
CC(C)CCOc1ccc(-c2cc(C(F)(F)F)nn2C)c(O)c1-c1ccc(Cl)c(C(F)(F)F)c1 [NUCC-0201635]	+ (>40 +)
Cn1nc(C(F)(F)F)cc1-c1ccc(N)cn1 [NUCC-0200688]	+ (>40 +)
COc1cccc(COc2ccc(-c3nn(C)cc3Oc3cc(C)ccc3C)c(O)c2)c1 [NUCC-0196289]	+ (>40 +)
Cn1nc(-c2ccc(OCc3ccc(Cl)cc3)cc2O)c(-c2ccccc2)c1C(F)(F)F [NUCC-0198297]	+ (>40 +)
COc1ccc(COc2ccc(-c3cc(C(F)(F)F)nn3C)c(O)c2-c2cc(C(F)(F)F)cc(C(F)(F)F)c2)cc1 [NUCC-0201042]	+ (>40 +)
Cc1ccc(C)c(Oc2c[nH]nc2-c2ccc(OCc3ccc4ccccc4c3)cc2O)c1 [NUCC-0196290]	+ (>40 +)
COc1ccc(CCOc2ccc(-c3cc(C(F)(F)F)n[nH]3)c(O)c2-c2cc(C(F)(F)F)cc(C(F)(F)F)c2)cc1 [NUCC-0201027]	+++ (10-30 +++)
Cn1cc(-c2cccnc2)c(-c2ccc(OCc3ccc(Cl)cc3)cc2O)n1 [NUCC-0198321]	+ (>40 +)
[N-]=[N+]=NCCOCCOCCOCCOCC(=O)Nc1ccc(COc2ccc(-c3cc(C(F)(F)F)n[nH]3)c(O)c2-c2cc(C(F)(F)F)cc(C(F)(F)F)c2)cc1 [NUCC-0201200]	+ (>40 +)
